According to patent US11053204B2, “Pyrimidinyloxy benzene derivatives as herbicides” (FMC Corporation, priority 2015, dated 2021):

Assays:
Type in all cases: in vivo
[1] = system: crabgrass, large (large crabgrass, Digitaria sanguinalis); experiment: Test C preemergence, plant response rating; conditions: Digitaria sanguinalis, pre-emergence, Preemergence
Method in brief: (§1)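 Both timings shared one formulation, a non-phytotoxic solvent mixture with surfactant, and a greenhouse period of 13 to 15 d. Preemergence used seeded loam/sand or silt loam soil, postemergence used 2 to 18 cm plants; visual ratings ran from 0 (no effect) to 100 (complete control).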

[2] = system: ryegrass, Italian (Italian ryegrass, Lolium multiflorum); experiment: Test C preemergence, plant response rating; conditions: Lolium multiflorum, pre-emergence, Preemergence
Method in brief: as §1

[3] = system: lambsquarters (Chenopodium album); experiment: Test C preemergence, plant response rating; conditions: Chenopodium album, pre-emergence, Preemergence
Method in brief: as §1

corn (Zea mays) = experiment: Test C preemergence, plant response rating; conditions: Zea mays, pre-emergence, Preemergence
Method in brief: as §1

[4] = system: waterhemp (common waterhemp, Amaranthus rudis); experiment: Test C preemergence, plant response rating; conditions: Amaranthus tuberculatus, pre-emergence, Preemergence
Method in brief: as §1

[5] = system: wheat (winter wheat, Triticum aestivum); experiment: Test C preemergence, plant response rating; conditions: Triticum aestivum, pre-emergence, Preemergence
Method in brief: as §1

[6] = system: ragweed (common ragweed, Ambrosia elatior); experiment: Test C preemergence, plant response rating; conditions: Ambrosia artemisiifolia, pre-emergence, Preemergence
Method in brief: as §1

[7] = system: oilseed rape (Brassica napus); experiment: Test C preemergence, plant response rating; conditions: Brassica napus, pre-emergence, Preemergence
Method in brief: as §1

[8] = system: velvetleaf (Abutilon theophrasti); experiment: Test C preemergence, plant response rating; conditions: Abutilon theophrasti, pre-emergence, Preemergence
Method in brief: as §1

[9] = system: nutsedge, yellow (yellow nutsedge, Cyperus esculentus); experiment: Test C preemergence, plant response rating; conditions: Cyperus, pre-emergence, Preemergence
Method in brief: as §1

[10] = system: blackgrass (Alopecurus myosuroides); experiment: Test C preemergence, plant response rating; conditions: Alopecurus myosuroides, pre-emergence, Preemergence
Method in brief: as §1

[11] = system: foxtail, giant (giant foxtail, Setaria faberii); experiment: Test C preemergence, plant response rating; conditions: Setaria faberi, pre-emergence, Preemergence
Method in brief: as §1

soybean (Glycine max) = experiment: Test C preemergence, plant response rating; conditions: Glycine max, pre-emergence, Preemergence, scale 0 to 100
Method in brief: as §1

[12] = system: morningglory (Ipomoea coccinea); experiment: Test C preemergence, plant response rating; conditions: Ipomoea, pre-emergence, Preemergence
Method in brief: as §1

rice (Oryza sativa) = experiment: Test B flooded paddy test, plant response rating; conditions: Oryza sativa, 312 h; 250 g ai/ha; Flood; scale of 0 to 100 where 0 is no effect and 100 is complete control; 13 to 15 days
Method in brief: (§2)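 Visual injury ratings against untreated controls, taken 13 to 15 days after compound was added to paddy water standing 3 cm above the soil.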

[13] = system: ducksalad (Heteranthera limosa); experiment: Test B flooded paddy test, plant response rating; conditions: Heteranthera limosa, 312 h; 250 g ai/ha; Flood; scale of 0 to 100 where 0 is no effect and 100 is complete control; 13 to 15 days
Method in brief: as §2

[14] = system: sedge, umbrella (small-flower umbrella sedge, Cyperus difformis); experiment: Test B flooded paddy test, plant response rating; conditions: Cyperus difformis, 312 h; 250 g ai/ha; Flood; scale of 0 to 100 where 0 is no effect and 100 is complete control; 13 to 15 days
Method in brief: as §2

[15] = system: pigweed (Amaranthus retroflexus); experiment: Test C preemergence, plant response rating; conditions: Preemergence

Work on `O=C(OCCC(F)(F)F)c1c(Br)cccc1Oc1ncc(Cl)cn1` [Compound 26, 3,3,3-trifluoropropyl 2-bromo-6-[(5-chloro-2-pyrimidinyl)oxy]benzoate] yielded a pest or weed control at 62 g/ha ([1]; 62 g ai/ha, scale of 0 to 100) of 100%, a pest or weed control at 125 g/ha ([1]; 125 g ai/ha, scale of 0 to 100) of 100% and a pest or weed control at 16 g/ha ([1]; 16 g ai/ha, scale 0 to 100) of 98%. It also gave a pest or weed control at 31 g/ha ([1]; 31 g ai/ha, scale 0 to 100) of 100%, a pest or weed control at 125 g/ha ([2]; 125 g ai/ha, scale of 0 to 100) of 95% and a pest or weed control at 16 g/ha ([2]; 16 g ai/ha, scale 0 to 100) of 35%. For the same compound, the pest or weed control at 31 g/ha ([2]; 31 g ai/ha, scale 0 to 100) was 75%, the pest or weed control at 62 g/ha ([2]; 62 g ai/ha, scale 0 to 100) was 85% and the pest or weed control at 125 g/ha ([3]; 125 g ai/ha, scale of 0 to 100) was 95%. For the same compound, the pest or weed control at 16 g/ha ([3]; 16 g ai/ha, scale 0 to 100) was 70%, the pest or weed control at 31 g/ha ([3]; 31 g ai/ha, scale 0 to 100) was 85% and the pest or weed control at 62 g/ha ([3]; 62 g ai/ha, scale 0 to 100) was 95%. The Corn plant response rating (crop injury, 0 = no effect, 100 = complete kill) at 62 g/ha (corn (Zea mays); 62 g ai/ha, scale of 0 to 100) was 25%, the Corn plant response rating (crop injury, 0 = no effect, 100 = complete kill) at 125 g/ha (corn (Zea mays); 125 g ai/ha, scale of 0 to 100) was 40% and the Corn plant response rating (crop injury, 0 = no effect, 100 = complete kill) at 16 g/ha (corn (Zea mays); 16 g ai/ha, scale 0 to 100) was 0%. For the same compound, the Corn plant response rating (crop injury, 0 = no effect, 100 = complete kill) at 31 g/ha (corn (Zea mays); 31 g ai/ha, scale 0 to 100) was 0%, the pest or weed control at 125 g/ha ([4]; 125 g ai/ha, scale of 0 to 100) was 100% and the pest or weed control at 16 g/ha ([4]; 16 g ai/ha, scale 0 to 100) was 100%. It also gave a pest or weed control at 31 g/ha ([4]; 31 g ai/ha, scale 0 to 100) of 100%, a pest or weed control at 62 g/ha ([4]; 62 g ai/ha, scale 0 to 100) of 100% and a plant injury at 125 g/ha ([5]; 125 g ai/ha, scale of 0 to 100) of 15%. For the same compound, the plant injury at 16 g/ha ([5]; 16 g ai/ha, scale 0 to 100) was 0%, the plant injury at 31 g/ha ([5]; 31 g ai/ha, scale 0 to 100) was 20% and the plant injury at 62 g/ha ([5]; 62 g ai/ha, scale 0 to 100) was 5%. It also gave a pest or weed control at 125 g/ha ([6]; 125 g ai/ha, scale of 0 to 100) of 50%, a pest or weed control at 16 g/ha ([6]; 16 g ai/ha, scale 0 to 100) of 20% and a pest or weed control at 31 g/ha ([6]; 31 g ai/ha, scale 0 to 100) of 30%. For the same compound, the pest or weed control at 62 g/ha ([6]; 62 g ai/ha, scale 0 to 100) was 60%, the plant injury at 125 g/ha ([7]; 125 g ai/ha, scale of 0 to 100) was 100% and the plant injury at 16 g/ha ([7]; 16 g ai/ha, scale 0 to 100) was 80%. For the same compound, the plant injury at 31 g/ha ([7]; 31 g ai/ha, scale 0 to 100) was 85%, the plant injury at 62 g/ha ([7]; 62 g ai/ha, scale 0 to 100) was 100% and the pest or weed control at 125 g/ha ([8]; 125 g ai/ha, scale of 0 to 100) was 100%. It also gave a pest or weed control at 16 g/ha ([8]; 16 g ai/ha, scale 0 to 100) of 0%, a pest or weed control at 31 g/ha ([8]; 31 g ai/ha, scale 0 to 100) of 30% and a pest or weed control at 62 g/ha ([8]; 62 g ai/ha, scale 0 to 100) of 85%. The pest or weed control at 125 g/ha ([9]; 125 g ai/ha, scale of 0 to 100) was 45%, the pest or weed control at 16 g/ha ([9]; 16 g ai/ha, scale 0 to 100) was 0% and the pest or weed control at 31 g/ha ([9]; 31 g ai/ha, scale 0 to 100) was 0%. For the same compound, the pest or weed control at 62 g/ha ([9]; 62 g ai/ha, scale 0 to 100) was 15%, the pest or weed control at 62 g/ha ([10]; 62 g ai/ha, scale of 0 to 100) was 90% and the pest or weed control at 125 g/ha ([10]; 125 g ai/ha, scale of 0 to 100) was 90%. It also gave a pest or weed control at 16 g/ha ([10]; 16 g ai/ha, scale 0 to 100) of 45%, a pest or weed control at 31 g/ha ([10]; 31 g ai/ha, scale 0 to 100) of 90% and a pest or weed control at 62 g/ha ([11]; 62 g ai/ha, scale of 0 to 100) of 98%. The pest or weed control at 125 g/ha ([11]; 125 g ai/ha, scale of 0 to 100) was 98%, the pest or weed control at 16 g/ha ([11]; 16 g ai/ha, scale 0 to 100) was 95% and the pest or weed control at 31 g/ha ([11]; 31 g ai/ha, scale 0 to 100) was 98%. It also gave a plant injury at 31 g/ha (soybean (Glycine max); 31 g ai/ha) of 10%, a plant injury at 62 g/ha (soybean (Glycine max); 62 g ai/ha) of 35% and a pest or weed control at 125 g/ha ([12]; 125 g ai/ha, scale of 0 to 100) of 95%. It also gave a pest or weed control at 16 g/ha ([12]; 16 g ai/ha, scale 0 to 100) of 20%, a pest or weed control at 31 g/ha ([12]; 31 g ai/ha, scale 0 to 100) of 10% and a pest or weed control at 62 g/ha ([12]; 62 g ai/ha, scale 0 to 100) of 85%. It also gave a plant injury at 250 g/ha (rice (Oryza sativa)) of 20%, a pest or weed control at 250 g/ha [13] of 100% and a pest or weed control at 250 g/ha [14] of 100%. For the same compound, the “Plant response rating, Pigweed” value ([15]; 125 g ai/ha, scale of 0 to 100) was 100, the “Plant response rating, Pigweed” value ([15]; 16 g ai/ha, scale 0 to 100) was 100 and the “Plant response rating, Pigweed” value ([15]; 31 g ai/ha, scale 0 to 100) was 100. For the same compound, the “Plant response rating, Pigweed” value ([15]; 62 g ai/ha, scale 0 to 100) was 100.
